Results from US8673889B2, “BLT2-mediated disease, BLT2 binding agent and the compound” (Ono Pharmaceutical Co., Ltd., priority 2004, dated 2014).

Molecular target: T1, BLT2 (Homo sapiens, UniProt Q9NPC1)
T1 sequence (Q9NPC1 1-358): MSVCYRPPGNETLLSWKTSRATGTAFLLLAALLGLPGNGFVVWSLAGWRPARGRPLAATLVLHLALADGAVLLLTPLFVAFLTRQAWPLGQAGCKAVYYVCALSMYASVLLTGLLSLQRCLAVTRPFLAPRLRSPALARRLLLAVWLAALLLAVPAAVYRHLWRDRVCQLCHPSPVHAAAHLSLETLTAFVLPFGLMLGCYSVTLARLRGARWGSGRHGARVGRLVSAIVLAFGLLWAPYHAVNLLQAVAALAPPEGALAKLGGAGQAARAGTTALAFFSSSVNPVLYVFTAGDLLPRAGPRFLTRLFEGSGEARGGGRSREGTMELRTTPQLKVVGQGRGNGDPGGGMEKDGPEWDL
Test: Evaluation of BLT2 agonistic activity by monitoring the variation of intracellular Ca2+ concentration
Type: cell-based
Design: expressed in transfected cells
Details: classification of the compounds (1) to (46)

| SMILES | BLT2 agonistic activity |
| --- | --- |
| CCCCN(Cc1ccc(-c2ccccc2-c2nnn[nH]2)cc1)C(=O)NCCc1ccccc1 [(5), N-butyl-N′-(2-phenylethyl)-N-{[2′-(1H-tetrazol-5-yl)biphenyl-4-yl]methyl}urea] | BLT2 agonistic activity |
| CCCCN(Cc1ccc(-c2ccccc2-c2nnn[nH]2)cc1)C(=O)NCCc1ccc(O)cc1 [(9), N-butyl-N′-[2-(4-hydroxyphenyl)ethyl]-N-{[2′-(1H-tetrazol-5-yl)biphenyl-4-yl]methyl}urea] | BLT2 agonistic activity |
| CCCCN(Cc1ccc(-c2ccccc2-c2nnn[nH]2)cc1)C(=O)Nc1ccccc1 [(13), N-butyl-N′-phenyl-N-{[2′-(1H-tetrazol-5-yl)biphenyl-4-yl]methyl}urea] | BLT2 agonistic activity |
| CCCCN(Cc1ccc(-c2ccccc2-c2nnn[nH]2)cc1)C(=O)Nc1cccc(OC)c1 [(16), N-butyl-N′-(3-methoxyphenyl)-N-{[2′-(1H-tetrazol-5-yl)biphenyl-4-yl]methyl}urea] | BLT2 agonistic activity |
| CCCCN(Cc1ccc(-c2ccccc2-c2nnn[nH]2)cc1)C(=O)Nc1ccc(OC)cc1 [(17), N-butyl-N′-(4-methoxyphenyl)-N-{[2′-(1H-tetrazol-5-yl)biphenyl-4-yl]methyl}urea] | BLT2 agonistic activity |
| CCCCN(Cc1ccc(-c2ccccc2-c2nnn[nH]2)cc1)C(=O)Nc1cccc(C(=O)OCC)c1 [(19)] | BLT2 agonistic activity |
| CCCCN(Cc1ccc(-c2ccccc2-c2nnn[nH]2)cc1)C(=O)Nc1ccc(C)cc1 [(20), N-butyl-N′-(4-methylphenyl)-N-{[2′-(1H-tetrazol-5-yl)biphenyl-4-yl]methyl}urea] | BLT2 agonistic activity |
| CCCCN(Cc1ccc(-c2ccccc2-c2nnn[nH]2)cc1)C(=O)N[C@@H](C)c1ccccc1 [(21), N-butyl-N′-[(1S)-1-phenylethyl]-N-{[2′-(1H-tetrazol-5-yl)biphenyl-4-yl]methyl}urea] | BLT2 agonistic activity |
| CCCCN(Cc1ccc(-c2ccccc2-c2nnn[nH]2)cc1)C(=O)Nc1ccc(F)c(F)c1 [(30), N-butyl-N′-(3,4-difluorophenyl)-N-{[2′-(1H-tetrazol-5-yl)biphenyl-4-yl]methyl}urea] | BLT2 agonistic activity |
| CCCCN(Cc1ccc(-c2ccccc2-c2nnn[nH]2)cc1)C(=O)Nc1ccccc1O [(39), N-butyl-N′-(2-hydroxyphenyl)-N-{[2′-(1H-tetrazol-5-yl)biphenyl-4-yl]methyl}urea] | BLT2 agonistic activity |
| CCCCN(Cc1ccc(-c2ccccc2-c2nnn[nH]2)cc1)C(=O)Nc1sc2c(c1C(=O)O)CCCC2 [(40), 2-{[(butyl{[2′-(1H-tetrazol-5-yl)biphenyl-4-yl]methyl}amino)carbonyl]amino}-4,5,6,7-tetrahydro-1-benzothiophen-3-carboxylic acid] | BLT2 agonistic activity |

Next, values leading:

| BLT2 agonistic activity | SMILES |
| --- | --- |
| BLT2 agonistic activity | CCCCN(Cc1ccc(-c2ccccc2-c2nnn[nH]2)cc1)C(=O)NC(C)C [(7), N-butyl-N′-isopropyl-N-{[2′-(1H-tetrazol-5-yl)biphenyl-4-yl]methyl}urea] |
| BLT2 agonistic activity | CCCCN(Cc1ccc(-c2ccccc2-c2nnn[nH]2)cc1)C(=S)NCC(=O)OC [(10), methyl N-[(butyl {[2′-(1H-tetrazol-5-yl)biphenyl-4-yl]methyl}amino)carbonothioyl]glycinate] |
| BLT2 agonistic activity | CCCCNC(=O)N(CCCC)Cc1ccc(-c2ccccc2-c2nnn[nH]2)cc1 [(11), N,N′-dibutyl-N-{[2′-(1H-tetrazol-5-yl)biphenyl-4-yl]methyl}urea] |
| BLT2 agonistic activity | CCCCN(Cc1ccc(-c2ccccc2-c2nnn[nH]2)cc1)C(=O)NC1CCCCC1 [(12), N-butyl-N′-cyclohexyl-N-{[2′-(1H-tetrazol-5-yl)biphenyl-4-yl]methyl}urea] |
| BLT2 agonistic activity | CCCCN(Cc1ccc(-c2ccccc2-c2nnn[nH]2)cc1)C(=O)NCc1ccccc1 [(22), N′-benzyl-N-butyl-N-{[2′-(1H-tetrazol-5-yl)biphenyl-4-yl]methyl}urea] |
| BLT2 agonistic activity | CCCCN(Cc1ccc(-c2ccccc2-c2nnn[nH]2)cc1)C(=O)NC(=O)OCC [(34), ethyl[(butyl{[2′-(1H-tetrazol-5-yl)biphenyl-4-yl]methyl}amino)carbonyl]carbamate] |
| BLT2 agonistic activity | CCCCN(Cc1ccc(-c2ccccc2-c2nnn[nH]2)cc1)C(=O)NCC1CCCO1 (stereo not shown) [(43), N-butyl-N′-(tetrahydrofuran-2-ylmethyl)-N-{[2′-(1H-tetrazol-5-yl)biphenyl-4-yl]methyl}urea] |
| BLT2 agonistic activity | CCCCN(Cc1ccc(-c2ccccc2-c2nnn[nH]2)cc1)C(=O)NCCN1CCOCC1 [(45), N-butyl-N′-(2-morpholin-4-ylethyl)-N-{[2′-(1H-tetrazol-5-yl)biphenyl-4-yl]methyl}urea] |
